Measurements taken from PubChem BioAssay (NCI).
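Assay format: 96-well plates, 48-hour exposure. The concentration for 50% growth inhibition is given as GI50. The concentration for full growth arrest is given as TGI.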

Experiments:
Experiment in all cases: inhibition of tumour cell growth, NCI panel, 48 h
[1] = tested on: OVCAR-4 ovarian
[2] = tested on: COLO 205 colon
[3] = tested on: MDA-MB-231 breast
[4] = tested on: OVCAR-5 ovarian
[5] = tested on: SK-MEL-5 melanoma
[6] = tested on: HCC-2998 colon
[7] = tested on: CCRF-CEM leukemia
[8] = tested on: U251 CNS
[9] = tested on: MOLT-4 leukemia
[10] = tested on: SR leukemia
[11] = tested on: T-47D breast
[12] = tested on: HS 578T breast
[13] = tested on: SNB-75 CNS
[14] = tested on: RPMI-8226 leukemia
[15] = tested on: A549 NSCLC
[16] = tested on: NCI-H226 lung
[17] = tested on: MCF7 breast
[18] = tested on: DU-145 prostate
[19] = tested on: NCI-H460 lung
[20] = tested on: SNB-19 CNS
[21] = tested on: IGROV1 ovarian
[22] = tested on: CAKI-1 renal
[23] = tested on: OVCAR-8 ovarian
[24] = tested on: OVCAR-3 ovarian
[25] = tested on: SW-620 colon
[26] = tested on: SK-MEL-28 melanoma
[27] = tested on: BT-549 breast
[28] = tested on: SK-OV-3 ovarian
[29] = tested on: PC-3 prostate
[30] = tested on: K-562 leukemia
[31] = tested on: HOP-62 NSCLC
[32] = tested on: TK-10 renal
[33] = tested on: HT29 colon
[34] = tested on: SF-295 CNS
[35] = tested on: SN12C renal
[36] = tested on: EKVX NSCLC
[37] = tested on: KM12 colon
[38] = tested on: HCT-15 colon
[39] = tested on: UO-31 renal
[40] = tested on: ACHN renal
[41] = tested on: NCI-H23 lung
[42] = tested on: UACC-62 melanoma
[43] = tested on: M14 melanoma
[44] = tested on: RXF 393 renal
[45] = tested on: A498 renal
[46] = tested on: SK-MEL-2 melanoma
[47] = tested on: NCI/ADR-RES ovarian
[48] = tested on: SF-268 CNS
[49] = tested on: MALME-3M melanoma
[50] = tested on: HOP-92 NSCLC
[51] = tested on: SF-539 CNS
[52] = tested on: HCT-116 colon
[53] = tested on: 786-0 renal
[54] = tested on: LOX IMVI melanoma
[55] = tested on: UACC-257 melanoma
[56] = tested on: HL-60(TB) leukemia

CC1(C)C[C@H]2C=C(C=O)[C@]34C[C@]3(C(=O)OC4O)[C@H]2C1 (stereo partly specified)
TGI [1]: 7.86 µM
TGI [2]: 1.44 µM
TGI [3]: 6.47 µM
TGI [4]: 5.14 µM
TGI [5]: 9.32 µM
TGI [6]: 12.3 µM
TGI [7]: > 100 µM
TGI [8]: 51.7 µM
TGI [9]: > 100 µM
TGI [10]: > 100 µM
TGI [11]: 4.63 µM
TGI [12]: > 100 µM
TGI [13]: 6.87 µM
TGI [14]: > 100 µM
TGI [15]: 13.1 µM
TGI [16]: 26.9 µM
TGI [17]: 5.54 µM
TGI [18]: 16.5 µM
TGI [19]: 53.4 µM
TGI [20]: > 100 µM
TGI [21]: 9.75 µM
TGI [22]: 5.04 µM
TGI [23]: 3.67 µM
TGI [24]: 8.47 µM
TGI [25]: > 100 µM
TGI [26]: 9.4 µM
TGI [27]: 4.56 µM
TGI [28]: 50.3 µM
TGI [29]: 8.74 µM
TGI [30]: > 100 µM
TGI [31]: 45.1 µM
TGI [32]: 4.53 µM
TGI [33]: 4.96 µM
TGI [34]: 23.9 µM
TGI [35]: > 100 µM
TGI [36]: 4.34 µM
TGI [37]: 5.6 µM
TGI [38]: 4.7 µM
TGI [39]: 6.92 µM
TGI [40]: 8.07 µM

COc1cc2nc(N3CCN(C(=O)c4ccco4)CC3)nc(N)c2cc1OC
TGI [41]: 27.1 µM

COc1ccc2c(c1)nc1n2C(c2c(F)cccc2Cl)SC1 (stereo unspecified)
TGI [1]: > 100 µM
TGI [2]: > 54.9 µM
TGI [3]: 27.9 µM
TGI [4]: > 100 µM
TGI [5]: > 43.2 µM
TGI [42]: > 100 µM
TGI [6]: > 39.8 µM
TGI [43]: > 24.7 µM
TGI [7]: > 100 µM
TGI [44]: > 22 µM
TGI [8]: > 35.4 µM
TGI [9]: > 41.4 µM
TGI [10]: > 36.4 µM
TGI [45]: > 29.7 µM
TGI [11]: > 52.5 µM
TGI [12]: 6.4 µM
TGI [13]: 7.85 µM
TGI [14]: > 47.8 µM
TGI [46]: > 27.7 µM
TGI [15]: > 50.6 µM
TGI [16]: 43.4 µM
TGI [17]: > 34.8 µM
TGI [47]: 4.81 µM
TGI [18]: > 29.3 µM
TGI [19]: > 35.1 µM
TGI [20]: > 58.7 µM
TGI [48]: 90.6 µM
TGI [41]: > 35 µM
TGI [49]: 5.43 µM
TGI [21]: > 100 µM
TGI [22]: > 100 µM
TGI [23]: 51 µM
TGI [24]: > 26.1 µM
TGI [25]: > 60.2 µM
TGI [26]: 37.2 µM
TGI [50]: > 100 µM
TGI [27]: > 31.3 µM
TGI [28]: > 38.1 µM
TGI [29]: > 51.6 µM
TGI [30]: > 100 µM
TGI [31]: > 44.6 µM
TGI [32]: > 76.8 µM
TGI [33]: > 100 µM
TGI [51]: 16.1 µM
TGI [52]: > 37 µM
TGI [34]: > 24.8 µM
TGI [35]: > 100 µM
TGI [36]: > 100 µM
TGI [53]: > 41.1 µM
TGI [37]: > 54.4 µM
TGI [38]: > 37.2 µM
TGI [54]: > 61.6 µM
TGI [39]: > 100 µM
TGI [55]: > 43.2 µM
TGI [40]: > 82.9 µM

CCOC(=O)c1cc(C(=O)c2cc(OC)cc(OC)c2)n2ncc3ccccc3c12
GI50 [5]: 0.623 µM
TGI [5]: > 100 µM
GI50 [42]: 0.692 µM
TGI [42]: > 100 µM
GI50 [43]: 0.485 µM
TGI [43]: > 100 µM
GI50 [10]: 0.442 µM
TGI [10]: > 100 µM
GI50 [12]: 1.84 µM
TGI [12]: > 100 µM
GI50 [17]: 0.41 µM
TGI [17]: > 100 µM
GI50 [47]: 0.476 µM
TGI [47]: > 100 µM
GI50 [20]: 1.57 µM
TGI [20]: > 100 µM
GI50 [48]: 1.59 µM
TGI [48]: > 100 µM
GI50 [56]: 0.82 µM
TGI [56]: > 100 µM
GI50 [27]: 1.18 µM
TGI [27]: > 100 µM
GI50 [29]: 0.839 µM
TGI [29]: > 100 µM
GI50 [34]: 0.483 µM
TGI [34]: > 100 µM
GI50 [38]: 0.484 µM
TGI [38]: > 100 µM
GI50 [55]: > 100 µM
TGI [55]: > 100 µM
